The source of these data is US8784929B2 (priority 2007, dated 2014).

The target in test [1] is T1, αHL-WT (Staphylococcus aureus, UniProt P09616). As to conditions: cited from earlier work.
The target of test [2] is T1, αHL-WT. The test is classed as biochemical, staphylococcal. As to conditions: pH 7.

T1 sequence (P09616 27-319 limits assumed): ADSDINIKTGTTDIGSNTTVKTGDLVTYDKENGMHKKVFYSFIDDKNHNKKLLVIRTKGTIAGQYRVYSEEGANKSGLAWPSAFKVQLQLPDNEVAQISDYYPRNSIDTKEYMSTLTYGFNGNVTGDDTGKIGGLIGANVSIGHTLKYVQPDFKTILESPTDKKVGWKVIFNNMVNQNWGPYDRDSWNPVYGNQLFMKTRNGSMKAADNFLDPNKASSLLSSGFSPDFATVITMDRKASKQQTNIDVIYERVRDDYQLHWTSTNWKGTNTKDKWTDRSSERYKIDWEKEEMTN

With `OC[C@H]1O[C@@H]2O[C@H]3[C@H](O)[C@@H](O)[C@@H](O[C@H]4[C@H](O)[C@@H](O)[C@@H](O[C@H]5[C@H](O)[C@@H](O)[C@@H](O[C@H]6[C@H](O)[C@@H](O)[C@@H](O[C@H]7[C@H](O)[C@@H](O)[C@@H](O[C@H]8[C@H](O)[C@@H](O)[C@@H](O[C@H]1[C@H](O)[C@H]2O)O[C@@H]8CO)O[C@@H]7CO)O[C@@H]6CO)O[C@@H]5CO)O[C@@H]4CO)O[C@@H]3CO` [β-cyclodextrin], the “binding of β-cyclodextrin (in words)” value in test [1] is listed as “does not bind β-cyclodextrin strongly”.

Consider `COC[C@H]1O[C@@H]2O[C@H]3[C@H](OC)[C@@H](OC)[C@@H](O[C@H]4[C@H](OC)[C@@H](OC)[C@@H](O[C@H]5[C@H](OC)[C@@H](OC)[C@@H](O[C@H]6[C@H](OC)[C@@H](OC)[C@@H](O[C@H]7[C@H](OC)[C@@H](OC)[C@@H](O[C@H]8[C@H](OC)[C@@H](OC)[C@@H](O[C@H]1[C@H](OC)[C@H]2OC)O[C@@H]8COC)O[C@@H]7COC)O[C@@H]6COC)O[C@@H]5COC)O[C@@H]4COC)O[C@@H]3COC` [hβCD, heptakis(2,3,6-tri-O-methyl)-β-cyclodextrin], for which, in test [2], the “current block on binding to αHL-WT” value amounted to 95%.

For the molecule `OC[C@H]1O[C@@H]2O[C@H]3[C@H](O)[C@@H](O)[C@@H](O[C@H]4[C@H](O)[C@@H](O)[C@@H](O[C@H]5[C@H](O)[C@@H](O)[C@@H](O[C@H]6[C@H](O)[C@@H](O)[C@@H](O[C@H]7[C@H](O)[C@@H](O)[C@@H](O[C@H]8[C@H](O)[C@@H](O)[C@@H](O[C@H]9[C@H](O)[C@@H](O)[C@@H](O[C@H]1[C@H](O)[C@H]2O)O[C@@H]9CO)O[C@@H]8CO)O[C@@H]7CO)O[C@@H]6CO)O[C@@H]5CO)O[C@@H]4CO)O[C@@H]3CO` [γCD, γ-cyclodextrin], the “current block on binding to αHL-WT” value in test [2] was determined as 68%.
